Experimental data as given in patent publication US20250129070A1, “BIFUNCTIONAL ANDROGEN RECEPTOR COMPOUNDS” (priority 2023, published 2025).

test system: AR / CBP ternary complex; experiment: Ternary complex formation assay (sandwich ELISA, AR capture / CBP detection) in VCaP cell lysates; type: cell-based; settings: 1.5 hours treatment, sandwich ELISA (AR capture, CBP or p300 detection)
Procedure: Preparation of Mouse Anti-AR Antibody Coated 96 Well Plates
Black MaxiSorp plates: coat with 50 μL of mouse 1/50 diluted AR antibody (Monoclonal Antibody (AR 441 from Thermo Fisher); diluted in phosphate buffered saline (PBS). Spin the liquid to the bottom of the wells, if necessary. Incubate overnight at 4° C. Next day, wash 3 times with 200 μL of TBST. Block with 200 μL of blocking buffer (5% BSA in TBST) at room temperature for 2 hours (BSA: A4503 or A2153 from Sigma). Wash plates 3 times with TBST. Plates are ready for lysates Preparation of dimerizer treated lysates
Culture cells in 96 wells at 50K VCaP cells/well for at least 3 days. Plate in 5% Omega charcoal stripped FBS in total volume of 200 uL. Treat with bifunctional for 1.5 hours by adding 1 μL of 200× stock in DMSO. Aspirate media/compound. Add and pipet-to-mix 70 μL of 1× AlphaLisa Lysis Buffer to each well (Perkin Elmer, AlphaLISA SureFire Ultra, diluted in water). Pipet up and down when adding lysis buffer to disrupt cells. Let lysis proceed for 30 min at 4° C.
Incubate for 1 hour at room temperature. Flick out the lysates. Wash 3 times with TBST. Add 75 μL of rabbit CBP or p300 antibody to each well (diluted 1:5000 in blocking buffer (5% BSA in TBST). CBP antibody: (D6C5) Rabbit mAb #7389; p300 antibody: (D8Z4E) Rabbit mAb #86377. Incubate overnight at 4° C. Wash 3 times with 300 uL TBST, each time on shaker for 5-10 min. Prepare goat anti-rabbit antibody conjugated to HRP (1/100K dilution in blocking buffer) Invitrogen Catalog number: 32260. Add 75 μL of HRP-conjugated goat anti-rabbit antibody. Incubate at room temperature for 1 hour. Flick out the HRP-antibody mixture. Wash 7-8 times with TBST, each time on shaker for 10 min. Later washes try to overflow the wells so that no residual HRP remains bound to the sides of the well. Prepare and add 75 uL/well of QuantaRed Enhance Chemifluorescent HRP Substrate solution. Immediately read fluorescence on BMG ClarioStar (ex: 570/em 585), and repeat the read in 5 minutes and 15 minutes.

Row | SMILES | EC50 [nM]
1 | COc1cc(OC2C(C)(C)C(NC(=O)c3ccc(N4CC5(CCC(N6CCC(n7nc(N8CCCc9cc(-c%10cn(C)cn%10)c(C(F)F)cc98)c8c7CCN(C(C)=O)C8)CC6)CC5)C4)cc3)C2(C)C)ccc1C#N (centres unmarked) [Compound 426, 4-[7-[4-[5-acetyl-3-[7-(difluoromethyl)-6-(1-methylimidazol-4-yl)-3,4-dihydro-2H-quinolin-1-yl]-6,7-dihydro-4H-pyrazolo[4,3-c]pyridin-1-yl]-1-piperidyl]-2-azaspiro[3.5]nonan-2-yl]-N-[3-(4-cyano-3-methoxy-phenoxy)-2,2,4,4-tetramethyl-cyclobutyl]benzamide] | < 1
2 | COc1cc(OC2C(C)(C)C(NC(=O)c3cnc(N4CC5(CCC(N6CCC(n7nc(N8CCCc9cc(-c%10cnn(C)c%10)c(C)cc98)c8c7CCN(C(C)=O)C8)CC6)CC5)C4)nc3)C2(C)C)ccc1C#N (centres unmarked) [Compound 469, 2-[7-[4-[5-acetyl-3-[7-methyl-6-(1-methylpyrazol-4-yl)-3,4-dihydro-2H-quinolin-1-yl]-6,7-dihydro-4H-pyrazolo[4,3-c]pyridin-1-yl]-1-piperidyl]-2-azaspiro [3.5]nonan-2-yl]-N-[3-(4-cyano-3-methoxy-phenoxy)-2,2,4,4-tetramethyl-cyclobutyl]pyrimidine-5-carboxamide] | < 1
3 | CC(=O)N1CCc2c(c(N3CCCc4cc(-c5cnn(C)c5)c(C(F)F)cc43)nn2C2CN(C(=O)CC3CCN(c4ncc(C(=O)NC5C(C)(C)C(Oc6ccc(C#N)c(Cl)c6)C5(C)C)cn4)CC3)C2)C1 (centres unmarked) [Compound 163, 2-[4-[2-[3-[5-acetyl-3-[7-(difluoromethyl)-6-(1-methylpyrazol-4-yl)-3,4-dihydro-2H-quinolin-1-yl]-6,7-dihydro-4H-pyrazolo[4,3-c]pyridin-1-yl]azetidin-1-yl]-2-oxo-ethyl]-1-piperidyl]-N-[3-(3-chloro-4-cyano-phenoxy)-2,2,4,4-tetramethyl-cyclobutyl]pyrimidine-5-carboxamide] | < 1
4 | CC(=O)N1CCc2c(c(N3CCCc4cc(-c5cnco5)c(C(F)F)cc43)nn2C2CCN(CC3C(C)CN(c4ncc(C(=O)NC5C(C)(C)C(Oc6ccc(C#N)c(Cl)c6)C5(C)C)cn4)CC3C)CC2)C1 (centres unmarked) [Compound 424, 2-[4-[[4-[5-acetyl-3-[7-(difluoromethyl)-6-oxazol-5-yl-3,4-dihydro-2H-quinolin-1-yl]-6,7-dihydro-4H-pyrazolo[4,3-c]pyridin-1-yl]-1-piperidyl]methyl]-3,5-dimethyl-1-piperidyl]-N-[3-(3-chloro-4-cyano-phenoxy)-2,2,4,4-tetramethyl-cyclobutyl]pyrimidine-5-carboxamide] | < 1
5 | CC(=O)N1CCc2c(c(N3CCCc4cc(-c5cnn(C)c5)c(C(F)F)cc43)nn2CCOc2ncc(C(=O)NC3C(C)(C)C(Oc4ccc(C#N)c(Cl)c4)C3(C)C)cn2)C1 (centres unmarked) [Compound 46, 2-[2-[5-acetyl-3-[7-(difluoromethyl)-6-(1-methylpyrazol-4-yl)-3,4-dihydro-2H-quinolin-1-yl]-6,7-dihydro-4H-pyrazolo[4,3-c]pyridin-1-yl]ethoxy]-N-[3-(3-chloro-4-cyano-phenoxy)-2,2,4,4-tetramethyl-cyclobutyl]pyrimidine-5-carboxamide] | < 1
6 | CC(=O)N1CCc2c(c(N3CCCc4cnccc43)nn2C2CCN(CC3CCN(c4ncc(C(=O)NC5C(C)(C)C(Oc6ccc(C#N)c(Cl)c6)C5(C)C)cn4)CC3)CC2)C1 (centres unmarked) [Compound 157, 2-[4-[[4-[5-acetyl-3-(3,4-dihydro-2H-1,6-naphthyridin-1-yl)-6,7-dihydro-4H-pyrazolo[4,3-c]pyridin-1-yl]-1-piperidyl]methyl]-1-piperidyl]-N-[3-(3-chloro-4-cyano-phenoxy)-2,2,4,4-tetramethyl-cyclobutyl]pyrimidine-5-carboxamide] | < 1
7 | CC(=O)N1CCc2c(c(N3CCCc4cc(-c5cnn(C)c5)c(C)cc43)nn2C2CN(CCC3CCN(c4ncc(C(=O)NC5C(C)(C)C(Oc6ccc(C#N)c(Cl)c6)C5(C)C)cn4)CC3)C2)C1 (centres unmarked) [Compound 160, 2-[4-[2-[3-[5-acetyl-3-[7-methyl-6-(1-methylpyrazol-4-yl)-3,4-dihydro-2H-quinolin-1-yl]-6,7-dihydro-4H-pyrazolo[4,3-c]pyridin-1-yl]azetidin-1-yl]ethyl]-1-piperidyl]-N-[3-(3-chloro-4-cyano-phenoxy)-2,2,4,4-tetramethyl-cyclobutyl]pyrimidine-5-carboxamide] | > 100
8 | COc1cc(OC2C(C)(C)C(NC(=O)c3ccc(OC4CCC(N5CCC(n6nc(N7CCCc8cc(-c9cnn(C)c9)c(C(F)F)cc87)c7c6CCN(C(C)=O)C7)CC5)CC4)cc3)C2(C)C)ccc1C#N (centres unmarked) [Compound 381, 4-[4-[4-[5-acetyl-3-[7-(difluoromethyl)-6-(1-methylpyrazol-4-yl)-3,4-dihydro-2H-quinolin-1-yl]-6,7-dihydro-4H-pyrazolo[4,3-c]pyridin-1-yl]-1-piperidyl]cyclohexoxy]-N-[3-(4-cyano-3-methoxy-phenoxy)-2,2,4,4-tetramethyl-cyclobutyl]benzamide] | < 1
9 | COc1cc(OC2C(C)(C)C(NC(=O)c3ccc(N4CC5(CCC(N6CCC(n7nc(N8CCCc9cc(-c%10cncs%10)c(C(F)F)cc98)c8c7CCN(C(C)=O)C8)CC6)CC5)C4)cc3)C2(C)C)ccc1C#N (centres unmarked) [Compound 428, 4-[7-[4-[5-acetyl-3-[7-(difluoromethyl)-6-thiazol-5-yl-3,4-dihydro-2H-quinolin-1-yl]-6,7-dihydro-4H-pyrazolo[4,3-c]pyridin-1-yl]-1-piperidyl]-2-azaspiro[3.5]nonan-2-yl]-N-[3-(4-cyano-3-methoxy-phenoxy)-2,2,4,4-tetramethyl-cyclobutyl]benzamide] | < 1
10 | COc1cc(O[C@H]2C(C)(C)[C@H](NC(=O)c3ccc(N4CCN(C5CN(c6ccc(-c7cc8c(cc7C(F)F)N(c7nn(C9CCOCC9)c9c7CN(C(C)=O)CC9)CCC8)cn6)C5)CC4)cc3)C2(C)C)ccc1C#N [Compound 326, 4-(4-(1-(5-(1-(5-acetyl-1-(tetrahydro-2H-pyran-4-yl)-4,5,6,7-tetrahydro-1H-pyrazolo[4,3-c]pyridin-3-yl)-7-(difluoromethyl)-1,2,3,4-tetrahydroquinolin-6-yl)pyridin-2-yl)azetidin-3-yl)piperazin-1-yl)-N-((1r,3r)-3-(4-cyano-3-methoxyphenoxy)-2,2,4,4-tetramethylcyclobutyl)benzamide] | < 1
11 | COc1cc(OC2C(C)(C)C(NC(=O)c3ccc(N4CCC[C@@H](N5CCC(n6nc(N7CCCc8cc(-c9cnn(C)c9)c(C(F)F)cc87)c7c6CCN(C(C)=O)C7)CC5)C4)cc3)C2(C)C)ccc1C#N (stereo partly drawn) [Compound 400, 4-[(3R)-3-[4-[5-acetyl-3-[7-(difluoromethyl)-6-(1-methylpyrazol-4-yl)-3,4-dihydro-2H-quinolin-1-yl]-6,7-dihydro-4H-pyrazolo[4,3-c]pyridin-1-yl]-1-piperidyl]-1-piperidyl]-N-[3-(4-cyano-3-methoxy-phenoxy)-2,2,4,4-tetramethyl-cyclobutyl]benzamide] | < 1
12 | COc1cc(OC2C(C)(C)C(NC(=O)c3ccc(N4CC5(CCC(N6CCC(n7nc(N8CCCc9cc(-c%10cnn(C)c%10)c(C(F)F)cc98)c8c7CCN(C(C)=O)C8)CC6)C5)C4)cc3)C2(C)C)ccc1C#N (centres unmarked) [Compound 345, 4-[6-[4-[5-acetyl-3-[7-(difluoromethyl)-6-(1-methylpyrazol-4-yl)-3,4-dihydro-2H-quinolin-1-yl]-6,7-dihydro-4H-pyrazolo[4,3-c]pyridin-1-yl]-1-piperidyl]-2-azaspiro[3.4]octan-2-yl]-N-[3-(4-cyano-3-methoxy-phenoxy)-2,2,4,4-tetramethyl-cyclobutyl]benzamide] | < 1
13 | COc1cc(OC2C(C)(C)C(NC(=O)c3ccc(N4CC(C)C(CN5CCC(n6nc(N7CCCc8cc(C#N)c(C)cc87)c7c6CCN(C(C)=O)C7)CC5)C(C)C4)cc3)C2(C)C)ccc1C#N (centres unmarked) [Compound 457, 4-[4-[[4-[5-acetyl-3-(6-cyano-7-methyl-3,4-dihydro-2H-quinolin-1-yl)-6,7-dihydro-4H-pyrazolo[4,3-c]pyridin-1-yl]-1-piperidyl]methyl]-3,5-dimethyl-1-piperidyl]-N-[3-(4-cyano-3-methoxy-phenoxy)-2,2,4,4-tetramethyl-cyclobutyl]benzamide] | < 1
14 | CC(=O)N1CCc2c(c(N3CCCc4cc(-c5cnn(C)c5)c(C(F)F)cc43)nn2C2CCC(N(C)C3CCN(c4ncc(C(=O)NC5C(C)(C)C(Oc6ccc(C#N)c(Cl)c6)C5(C)C)cn4)CC3)CC2)C1 (centres unmarked) [Compound 282, 2-[4-[[4-[5-acetyl-3-[7-(difluoromethyl)-6-(1-methylpyrazol-4-yl)-3,4-dihydro-2H-quinolin-1-yl]-6,7-dihydro-4H-pyrazolo[4,3-c]pyridin-1-yl]cyclohexyl]-methyl-amino]-1-piperidyl]-N-[3-(3-chloro-4-cyano-phenoxy)-2,2,4,4-tetramethyl-cyclobutyl]pyrimidine-5-carboxamide] | < 1
